# Results reported in patent publication US20100144855A1, “APPLICATION OF SEDOISOPROSAN FOR PREPARATION OF MEDICINE FOR TREATMENT OF HUMAN HBeAg POSITIVE CHRONIC HEPATITIS B” (priority 2008, published 2010).
# Test: clinical trial, safety in HBeAg positive chronic hepatitis B patients
# Type: in vivo, human
# Conditions: for cases with adverse events: 16 cases
# Text: The clinical trial protocol was designed according to the randomized, double-blind and controlled principle. The clinical efficacy and the safety of sedoisoprosan for therapy on human HBeAg positive chronic hepatitis B is defined according to the changes of vivo HBV-DNA level, ALT level, vital signs, blood routine indexes, blood biochemical indexes and thyroid function indexes before and after administration and the incidence of adverse events.
# Patients enrolled in the clinical trials were randomly divided into four groups, i.e. negative control group (800 mg mannite), low dose group (200 mg sedoisoprosan with 600 mg mannite), median dose group (400 mg sedoisoprosan with 400 mg mannite) and high dose group (800 mg sedoisoprosan) respectively. Each patient was assigned with a CRF No. which was randomly generated by computer.
# Baseline assessment was performed on the day of the first administration, which included medical examination, hematological examination, blood biochemical examination, thyroid function examination, ALT examination and quantitative detection of HBV-DNA. The medical examination included the examination of stature, avoirdupois, blood pressure and pulse rate. The hematological examination included the leucocyte, neutrophil, erythrocyte, platelet and haemoglobin counts, and the prothrombin time. The blood biochemical examination included the examination of serum potassium, sodium, GOT, total bilirubin, AKP, total protein, albumin, total cholesterol, triglyceride, urea nitrogen, creatinine and glucose.
# The patients were followed up at the 1st, 2nd, 4th, 8th and 12th week of the treatment. The blood biochemical examination and the quantitative detection of HBV-DNA was performed at the 2nd, 4th, 8th and 12th week of the treatment, and the adverse events were recorded at the same time. The thyroid function examination was performed at the 12th week of the treatment.
# The safety indexes included vital signs, clinical laboratory parameters, adverse events, important adverse events, serious adverse events and the early termination cases. The safety analysis should be performed on patients who have received at least once administration and were evaluated after the administration.
# The detection of vital signs and laboratory parameters and the recording for adverse events was performed at baseline and at the 1st, 2nd, 4th, 8th and 12th week of the treatment. The vital signs and laboratory parameters were evaluated by the changes thereof before and after the treatment. The incidence of adverse events was figured by the proportion of patients having adverse events during the treatment, and the evaluation of adverse events included the kinds, grades and the relationship to the drugs. The adverse events were recorded by descriptive statistics, and comparison of the incidence thereof between the four groups was performed by Fisher probabilistic test.
# [1] = high dose group, 800 mg, the 1st week
# [2] = high dose group, 800 mg, the 2nd week
# [3] = high dose group, 800 mg, the 4th week
# [4] = high dose group, 800 mg, the 8th week
# [5] = high dose group, 800 mg, the 12th week
# [6] = low dose group, 200 mg, the 1st week
# [7] = low dose group, 200 mg, the 2nd week
# [8] = low dose group, 200 mg, the 4th week
# [9] = low dose group, 200 mg, the 8th week
# [10] = low dose group, 200 mg, the 12th week
# [11] = median dose group, 400 mg, the 1st week
# [12] = median dose group, 400 mg, the 2nd week
# [13] = median dose group, 400 mg, the 4th week
# [14] = median dose group, 400 mg, the 8th week
# [15] = median dose group, 400 mg, the 12th week
# [16] = patient CRF 3, high dose group (800 mg)
# [17] = patient CRF 7, low dose group (200 mg)
# [18] = patient CRF 10, low dose group (200 mg)
# [19] = patient CRF 14, low dose group (200 mg)
# [20] = patient CRF 15, median dose group (400 mg)
# [21] = patient CRF 17, low dose group (200 mg)
# [22] = patient CRF 19, high dose group (800 mg)
# [23] = patient CRF 20, median dose group (400 mg)
# [24] = patient CRF20, median dose group, after 8 weeks' treatment
# [25] = patient CRF 32, median dose group (400 mg)
# [26] = patient CRF 60, median dose group (400 mg)
compound,measurement,setting,value
"CC1(C)OC2C3COC(CO)(O3)C(O)C2O1 (centres unmarked) [sedoisoprosan, isopropylidene sedoheptulosan]","safety of the highest dose (vital signs, blood routine and blood biochemical indexes)",800 mg,safe
same,changes in total bilirubin levels before and after the treatment,12 weeks' treatment,"significant changes in total bilirubin levels before and after the treatment, but such changes were still within the normal range"
same,"changes in vital signs, blood routine indexes and blood biochemical indexes, excluding the total bilirubin levels, before and after the treatment",12 weeks' treatment,No significant changes
same,important adverse events related to the study drug and needing treatment,"CRF16, CRF19 and CRF20",3 cases
same,central nervous system abnormalities among adverse events,all groups,No central nervous system abnormalities were found
same,incidence of adverse events,"clinical trials, 200-800 mg",low
same,patients who quitted the clinical trials for adverse events,high dose group,No patients
same,cases with adverse events,high dose group (800 mg),two
same,Avoirdupois,[1],61.34 ± 9.96 kg
same,Diastolic Pressure,[1],75.31 ± 7.26 mmHg
same,Pulse rate,[1],76.00 ± 5.81 times/min
same,Respiratory frequency,[1],18.00 ± 1.86 times/min
same,Systolic Pressure,[1],115.56 ± 13.17 mmHg
same,Avoirdupois,[2],61.41 ± 9.89 kg
same,Diastolic Pressure,[2],75.31 ± 6.14 mmHg
same,Pulse rate,[2],75.81 ± 5.27 times/min
same,Respiratory frequency,[2],18.38 ± 1.78 times/min
same,Systolic Pressure,[2],112.81 ± 12.55 mmHg
same,Avoirdupois,[3],61.53 ± 9.81 kg
same,Diastolic Pressure,[3],75.44 ± 6.03 mmHg
same,Pulse rate,[3],76.38 ± 5.95 times/min
same,Respiratory frequency,[3],17.94 ± 1.84 times/min
same,Systolic Pressure,[3],112.69 ± 11.69 mmHg
same,Avoirdupois,[4],62.06 ± 9.20 kg
same,Diastolic Pressure,[4],77.56 ± 5.05 mmHg
same,Pulse rate,[4],75.75 ± 5.27 times/min
same,Respiratory frequency,[4],18.75 ± 1.24 times/min
same,Systolic Pressure,[4],115.19 ± 10.91 mmHg
same,Avoirdupois,[5],62.67 ± 9.45 kg
same,Diastolic Pressure,[5],76.73 ± 5.16 mmHg
same,Pulse rate,[5],75.73 ± 4.85 times/min
same,Respiratory frequency,[5],19.13 ± 1.13 times/min
same,Systolic Pressure,[5],115.20 ± 11.55 mmHg
same,cases with adverse events,low dose group (200 mg),four
same,Avoirdupois,[6],61.72 ± 10.47 kg
same,Diastolic Pressure,[6],72.38 ± 5.14 mmHg
same,Pulse rate,[6],76.06 ± 5.95 times/min
same,Respiratory frequency,[6],18.63 ± 1.31 times/min
same,Systolic Pressure,[6],116.63 ± 8.79 mmHg
same,Avoirdupois,[7],61.59 ± 10.80 kg
same,Diastolic Pressure,[7],73.38 ± 6.01 mmHg
same,Pulse rate,[7],74.13 ± 4.70 times/min
same,Respiratory frequency,[7],18.75 ± 1.57 times/min
same,Systolic Pressure,[7],116.00 ± 10.67 mmHg
same,Avoirdupois,[8],61.57 ± 10.72 kg
same,Diastolic Pressure,[8],74.87 ± 6.55 mmHg
same,Pulse rate,[8],75.13 ± 4.50 times/min
same,Respiratory frequency,[8],18.60 ± 1.30 times/min
same,Systolic Pressure,[8],113.93 ± 9.95 mmHg
same,Avoirdupois,[9],62.86 ± 11.14 kg
same,Diastolic Pressure,[9],73.29 ± 5.82 mmHg
same,Pulse rate,[9],73.57 ± 5.65 times/min
same,Respiratory frequency,[9],18.64 ± 1.45 times/min
same,Systolic Pressure,[9],115.71 ± 9.75 mmHg
same,Avoirdupois,[10],63.58 ± 12.09 kg
same,Diastolic Pressure,[10],74.54 ± 4.94 mmHg
same,Pulse rate,[10],71.54 ± 4.16 times/min
same,Respiratory frequency,[10],19.15 ± 1.28 times/min
same,Systolic Pressure,[10],115.85 ± 10.79 mmHg
same,cases with adverse events,median dose group (400 mg),four
same,Avoirdupois,[11],62.67 ± 12.11 kg
same,Diastolic Pressure,[11],71.53 ± 7.53 mmHg
same,Pulse rate,[11],77.60 ± 3.83 times/min
same,Respiratory frequency,[11],19.13 ± 3.76 times/min
same,Systolic Pressure,[11],114.33 ± 11.00 mmHg
same,Avoirdupois,[12],62.30 ± 12.09 kg
same,Diastolic Pressure,[12],71.73 ± 6.24 mmHg
same,Pulse rate,[12],75.47 ± 5.36 times/min
same,Respiratory frequency,[12],18.53 ± 3.54 times/min
same,Systolic Pressure,[12],114.67 ± 9.85 mmHg
same,Avoirdupois,[13],61.73 ± 9.86 kg
same,Diastolic Pressure,[13],73.13 ± 5.69 mmHg
same,Pulse rate,[13],76.40 ± 3.81 times/min
same,Respiratory frequency,[13],18.40 ± 4.03 times/min
same,Systolic Pressure,[13],115.80 ± 10.25 mmHg
same,Avoirdupois,[14],62.70 ± 11.76 kg
same,Diastolic Pressure,[14],73.73 ± 4.51 mmHg
same,Pulse rate,[14],75.40 ± 3.25 times/min
same,Respiratory frequency,[14],19.27 ± 2.34 times/min
same,Systolic Pressure,[14],110.87 ± 7.70 mmHg
same,Avoirdupois,[15],59.88 ± 8.18 kg
same,Diastolic Pressure,[15],74.77 ± 5.15 mmHg
same,Pulse rate,[15],78.00 ± 4.53 times/min
same,Respiratory frequency,[15],19.31 ± 2.66 times/min
same,Systolic Pressure,[15],115.69 ± 9.67 mmHg
same,reason for early termination,"one patient, low dose group, after 6 weeks' treatment",progressive increasing ALT level
same,Adverse event Liver Dysfunction: Outcome,[16],Remission Without Sequela
same,Adverse event Liver Dysfunction: Relation to the study drug,[16],Unrelated
same,Adverse event Liver Dysfunction: Severity,[16],Light
same,Adverse event Urinary Tract Infection: Outcome,[17],Remission Without Sequela
same,Adverse event Urinary Tract Infection: Relation to the study drug,[17],Unrelated
same,Adverse event Urinary Tract Infection: Severity,[17],Light
same,Adverse event Progressive Increase in ALT Level: Outcome,[18],Reexamination of Liver Function After A Week
same,Adverse event Progressive Increase in ALT Level: Relation to the study drug,[18],Maybe Unrelated
same,Adverse event Progressive Increase in ALT Level: Severity,[18],Middle
same,Adverse event Alopecia: Outcome,[19],No Change
same,Adverse event Alopecia: Relation to the study drug,[19],Maybe Related
same,Adverse event Alopecia: Severity,[19],Light
same,Adverse event Gingival Bleeding: Outcome,[19],Remission Without Sequela
same,Adverse event Gingival Bleeding: Relation to the study drug,[19],Maybe Unrelated
same,Adverse event Gingival Bleeding: Severity,[19],Light
same,Adverse event Liver Dysfunction: Outcome,[19],Remission Without Sequela
same,Adverse event Liver Dysfunction: Relation to the study drug,[19],Maybe Unrelated
same,Adverse event Liver Dysfunction: Severity,[19],Light
same,Adverse event Pharyngoxerosis: Outcome,[19],Remission Without Sequela
same,Adverse event Pharyngoxerosis: Relation to the study drug,[19],Unrelated
same,Adverse event Pharyngoxerosis: Severity,[19],Light
same,Adverse event Alopecia: Outcome,[20],No Change
same,Adverse event Alopecia: Relation to the study drug,[20],Maybe Related
same,Adverse event Alopecia: Severity,[20],Light
same,Adverse event Emesis: Outcome,[20],Remission Without Sequela
same,Adverse event Emesis: Relation to the study drug,[20],Maybe Unrelated
same,Adverse event Emesis: Severity,[20],Light
same,Adverse event Gingival Bleeding: Outcome,[20],Remission Without Sequela
same,Adverse event Gingival Bleeding: Relation to the study drug,[20],Maybe Unrelated
same,Adverse event Gingival Bleeding: Severity,[20],Light
same,Adverse event Increase in ALT Level: Outcome,[20],Remission Without Sequela
same,Adverse event Increase in ALT Level: Relation to the study drug,[20],Maybe Unrelated
same,Adverse event Increase in ALT Level: Severity,[20],Light
same,Adverse event Alopecia: Outcome,[21],No Change
same,Adverse event Alopecia: Relation to the study drug,[21],Maybe Related
same,Adverse event Alopecia: Severity,[21],Light
same,"Adverse event ALT 74 U/L, TBil 133.1: Outcome",[22],Remission Without Sequela
same,"Adverse event ALT 74 U/L, TBil 133.1: Relation to the study drug",[22],Maybe Related
same,"Adverse event ALT 74 U/L, TBil 133.1: Severity",[22],Middle
same,Adverse event Aggravated Muscle Ache: Outcome,[22],Remission Without Sequela
same,Adverse event Aggravated Muscle Ache: Relation to the study drug,[22],Maybe Related
same,Adverse event Aggravated Muscle Ache: Severity,[22],Middle
same,Adverse event Costalgia And Notalgia: Outcome,[22],Remission Without Sequela
same,Adverse event Costalgia And Notalgia: Relation to the study drug,[22],Maybe Related
same,Adverse event Costalgia And Notalgia: Severity,[22],Middle
same,Adverse event Generalized Muscle Ache: Outcome,[22],Remission Without Sequela
same,Adverse event Generalized Muscle Ache: Relation to the study drug,[22],Maybe Related
same,Adverse event Generalized Muscle Ache: Severity,[22],Light
same,Adverse event Acid Regurgitation: Outcome,[23],Remission Without Sequela
same,Adverse event Acid Regurgitation: Relation to the study drug,[23],Maybe Related
same,Adverse event Acid Regurgitation: Severity,[23],Light
same,Adverse event Aggravated Digestive Symptom: Outcome,[23],Remission Without Sequela
same,Adverse event Aggravated Digestive Symptom: Relation to the study drug,[23],Related
same,Adverse event Aggravated Digestive Symptom: Severity,[23],Middle
same,Adverse event Dark Urine: Outcome,[23],Remission Without Sequela
same,Adverse event Dark Urine: Relation to the study drug,[23],Related
same,Adverse event Dark Urine: Severity,[23],Middle
same,Adverse event Epigastric Discomfort: Outcome,[23],Remission Without Sequela
same,Adverse event Epigastric Discomfort: Relation to the study drug,[23],Related
same,Adverse event Epigastric Discomfort: Severity,[23],Middle
same,Adverse event Hypodynamia: Outcome,[23],Remission Without Sequela
same,Adverse event Hypodynamia: Relation to the study drug,[23],Related
same,Adverse event Hypodynamia: Severity,[23],Middle
same,Adverse event Icterus: Outcome,[23],Remission Without Sequela
same,Adverse event Icterus: Relation to the study drug,[23],Related
same,Adverse event Icterus: Severity,[23],Middle
same,ALT level at early termination,[24],343 U/L
same,AST level at early termination,[24],517 U/L
same,TBil level at early termination,[24],68.1 µmol/L
same,Adverse event Toothache And Periodontitis: Outcome,[25],Remission Without Sequela
same,Adverse event Toothache And Periodontitis: Relation to the study drug,[25],Unrelated
same,Adverse event Toothache And Periodontitis: Severity,[25],Middle
same,Adverse event Upper Respiratory Tract Infection: Outcome,[26],Remission Without Sequela
same,Adverse event Upper Respiratory Tract Infection: Relation to the study drug,[26],Unrelated
same,Adverse event Upper Respiratory Tract Infection: Severity,[26],Middle
